Measurements from ChEMBL document CHEMBL5260811, “Drug development against tuberculosis: Impact of alkaloids” (Eur J Med Chem, 2017).

What was measured:
[1] = tested on: Mycobacterium tuberculosis variant bovis; assay: Antimycobacterial activity against Mycobacterium bovis; format: functional
[2] = tested on: Mycobacterium tuberculosis variant bovis; assay: Antimycobacterial activity against Mycobacterium bovis BCG; format: functional

| Compound | IC [1] [µg/mL] | IC [2] [µg/mL] |
| --- | --- | --- |
| OC1CCCC/C=C\CCCC[C@@H]2CN3CCCC/C=C\CCCC[C@H]4C[C@H](CN(C1)C4)[C@H]2CC3 (some centres undefined) | 12.5 | – |
| C1=C\CCCC[C@@H]2CN3CCCC/C=C\CCCC[C@H]4C[C@H](CN(CCCCCC/1)C4)[C@H]2CC3 | 1 | – |
| C1=C\CCCCN2C[C@H]3CCCC/C=C\CCCCN4CC[C@@H]([C@H](CCCCCC/1)C4)[C@H](C3)C2 | 2.5 | – |
| C(=N\Nc1nncs1)/c1c[nH]c2ccccc12 | – | 7.81 |
